Tested on: Human embryonic fibroblasts
Assay: Cell proliferation test with extracts of Elastollan films (Giemsa stain, optical density 620 nm)
Assay type: cell-based
Details: extracts obtained in Eagle's medium 37° C. 3 h; cells incubated 72 h; mitomycin C 20 μg/ml for 2 h
Description: Elastollan films containing 0.1 and 0.5% by weight shikonin, and Elastollan films without shikonin, were tested.
Human embryonic fibroblasts were employed in these experiments. The cells were cultivated in Eagle's medium with the addition of 10% fetal calf serum and passaged twice a week using a trypsin-EDTA solution. The cells present after the 14th passage were used for the tests.
Mitomycin C dissolved in culture medium in a concentration of 20 μg/ml was used as […] control.
Extracts from Elastollan films without shikonin, Elastollan films with 0.1% by weight and 0.5% by weight shikonin (based on polyurethane), and shikonin alone, were tested.
Extracts were obtained by incubating dishes covered by the polymers to be tested (i.e. Elastollan films without or with shikonin) with Eagle's medium at 37° C. for 3 h. Undissolved solids were removed by filtering. The control with shikonin only (in the culture medium) was cultivated under the same conditions. […]
The stain retained by the cells was eluted with a phosphate buffer/alcohol mixture (1:1) at room temperature for 15 min. The optical density of the resulting solutions was determined by a spectrophotometer with a wavelength of 620 nm.

CO[C@@]12[C@H](COC(N)=O)C3=C(C(=O)C(C)=C(N)C3=O)N1C[C@@H]1N[C@@H]12 [mitomycin C, Mitomycin C]
cell growth of fibroblasts after exposure to the tested extract: no cell growth was observed

From patent US20050208101A1, “Coating composition for an implantable medical device and method for coating such a device” (priority 2002, published 2005)
